Legend:
[1] = tested on: B16 cells derived from the mouse melanoma; experiment: Test on B16 cultured cells derived from mouse melanoma: degree of melanin generation (blackening/whitening) observed by the naked eye; assay type: cell-based; parameters: key: -: Not whitened at all; +: Slightly whitened; +: Considerably whitened; ++: Whitening clearly descernible; +++: Whitening proceeded to such degree that blackening cannot be observed; conditions: culture 5 days at 37°C
Experimental: I. Test on B16 Cultured Cells Derived from Mouse Melanoma (Testing Method)
Aqueous solution of vitamin E was added 30 µg/ml, 20 µg/ml, 10 µg/ml and 2 µg/ml respectively in final concentration to the culture medium for B16 cells derived from the mouse melanoma. After culture period for 5 days at 37°C, the degree of melanin generation (degree of blackening) was observed by the naked eyes.

[2] = biological target: T1, tyrosinase from a B16 cell homogenate (Mus musculus, UniProt P11344); experiment: B16 cell-derived tyrosinase activity inhibition (absorbance increase at 475 nm); assay type: biochemical; conditions: aqueous solutions 0.1, 0.05 and 0.03 µl/ml; 10 mM dopa, pH 6.8, 37°C, 0.15 minutes
T1 construct: 0.1 ml of a 11000 G supernatant of a B16 cell homogenate; endogenous in cells; host or cells: B16 mouse melanoma cells (11000 G supernatant of homogenate)
T1 sequence (P11344 19-533): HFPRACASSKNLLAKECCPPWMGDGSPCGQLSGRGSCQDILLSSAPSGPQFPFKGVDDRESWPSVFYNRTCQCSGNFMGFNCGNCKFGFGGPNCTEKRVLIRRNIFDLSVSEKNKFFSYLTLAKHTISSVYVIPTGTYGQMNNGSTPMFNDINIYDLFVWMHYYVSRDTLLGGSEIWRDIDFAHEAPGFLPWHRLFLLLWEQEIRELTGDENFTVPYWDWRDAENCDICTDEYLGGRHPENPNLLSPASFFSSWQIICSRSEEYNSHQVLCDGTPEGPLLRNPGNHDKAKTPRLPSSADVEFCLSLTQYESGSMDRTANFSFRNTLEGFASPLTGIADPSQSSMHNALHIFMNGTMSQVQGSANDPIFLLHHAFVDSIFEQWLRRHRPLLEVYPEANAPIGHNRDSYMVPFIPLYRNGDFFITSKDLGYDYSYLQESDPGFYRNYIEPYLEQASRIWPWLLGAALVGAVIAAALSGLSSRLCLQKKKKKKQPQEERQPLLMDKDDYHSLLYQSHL
Experimental: Fig. 2 is a figure showing the test results of the tyrosinase activity inhibition by vitamin E solutions on tyrosinase from a B16 cell homogenate. In the figure, -▲-, -●- ,-x- and -o- have the same significance as in Fig. 1.
b. Test on the B16 cell-derived tyrosinase Activity Inhibition
Samples were prepared respectively by adding 1.0 ml of aqueous solutions containing vitamin E at concentrations of 0.1 µl/ml, 0.05 µl/ml and 0.03 µl/ml prepared in the production examples described hereinbelow to 0.1 ml of a 11000 G supernatant of a B16 cell homogenate, 1.0 ml of a 10 mM dopa and 0.9 ml of a 0.1 M phosphate buffer (pH 6.8), also a solution containing no vitamin E was prepared as a control, and the increase in absorbance at 475 nm at 37°C for […] was measured.

mashroom tyrosinase = experiment: Mushroom-derived tyrosinase activity inhibition (absorbance increase at 475 nm); assay type: biochemical; conditions: aqueous solutions 0.1, 0.05 and 0.03 µl/ml; tyrosine substrate, pH 6.8, 37°C, 0-15 minutes
Experimental: Fig. 1 is a figure showing the test results of the tyrosinase activity inhibition by vitamin E solutions on mashroom tyrosinase. In the figure, -▲- stands for the absorbance at 475 nm of an aqueous solution of a concentration of vitamin E of 0.1 µl/ml, -●- for an aqueous solution of concentration of vitamin E of 0.05 µl/ml, -x- for an aqueous solution of a concentration of vitamin E of 0.03 µl/ml and -o- for an aqueous solution containing no vitamin E (control).
a. Test on the Mashroom-derived Tyrosinase Activity Inhibition
Samples were prepared by adding 1.0 ml of aqueous solutions containing vitamin E at concentrations of 0.1 µl/ml, 0.05 µl/ml and 0.03 µl/ml respectively to 1.0 ml of a tyrosine solution (0.3 mg/ml), 0.9 ml of a 0.1 M phosphate buffer (pH 6.8) and 0.1 ml of mashroom tyrosinase (400 U/ml), also a solution containing no vitamin E was prepared as a control, and the increase in absorbance at 475 nm at 37°C for 0-15 minutes was measured.

[3] = according to WHO; cited from earlier work

Q: With vitamin E as the substance, how does the “Degree of Whitening” value ([1]; 10 µg/ml final concentration) read?
A: +

Q: And the “Degree of Whitening” value ([1]; 20 µg/ml final concentration)?
A: ++

Q: What about the “Degree of Whitening” value ([1]; 30 µg/ml final concentration) of the same substance?
A: +++

Q: What about the “effect to inhibit the B16 cell tyrosinase” value [2] of the same substance?
A: not observed

Q: And the “effect to inhibit the mashroom tyrosinase” value (mashroom tyrosinase)?
A: not observed

Q: And the acute toxicity [3]?
A: no acute toxicity

From patent EP0241573A1, “Topical agents for inhibiting the melanin generation” (Sansho Seiyaku Co., Ltd., priority 1986, dated 1987)
